Experimental data from patent US20260092071A1, “COMPOUNDS AND COMPOSITIONS AS SMARCA2/4 DEGRADERS AND USES THEREOF” (REGENTS OF THE UNIVERSITY OF MICHIGAN, priority 2022, published 2026).

Key:
[1] = molecular target: SMARCA2 (Homo sapiens, UniProt P51531); experiment: HiBit assay in engineered HT1080 CRISPR knock-in cell, 6 hrs (B series), SMARCA2; type: cell-based; conditions: 6 hrs incubation; for DC50: HT1080 CRISPR knock-in cells, read-out: SMARC A2 HT1080 HiBit DC50; for Dmax: HT-1080, HT1080 CRISPR knock-in cells, read-out: SMARC A2 HT1080 HiBit Dmax (%)
In short: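 Engineered HT1080 knock-in cells, 2000 cells/well, 6 hrs compound exposure, 37° C/5% CO2, 0.1% DMSO final. Lytic detection: LgBiT 1:100 plus HiBiT substrate 1:50 in lytic buffer, 10 min shake at RT, luminescence read.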

[2] = molecular target: SMARCA4 (Homo sapiens, UniProt P51532); experiment: HiBit assay in engineered HT1080 CRISPR knock-in cell, 6 hrs (B series), SMARCA4; type: cell-based; conditions: 6 hrs incubation; for DC50: HT1080 CRISPR knock-in cells, read-out: SMARC A4 HT1080 HiBit DC50; for Dmax: HT-1080, HT1080 CRISPR knock-in cells, read-out: SMARC A4 HT1080 HiBit Dmax(%)
In short: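 Using a 6 hr treatment window at 37° C and 5% CO2, tagged HT1080 knock-in cells were exposed to test compounds with DMSO vehicle held at 0.1%. Signal came from lytic LgBiT/substrate reagent added after incubation, with control wells lacking LgBiT, and was read as luminescence.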

Chain of SMARCA2 (P51531 whole entry): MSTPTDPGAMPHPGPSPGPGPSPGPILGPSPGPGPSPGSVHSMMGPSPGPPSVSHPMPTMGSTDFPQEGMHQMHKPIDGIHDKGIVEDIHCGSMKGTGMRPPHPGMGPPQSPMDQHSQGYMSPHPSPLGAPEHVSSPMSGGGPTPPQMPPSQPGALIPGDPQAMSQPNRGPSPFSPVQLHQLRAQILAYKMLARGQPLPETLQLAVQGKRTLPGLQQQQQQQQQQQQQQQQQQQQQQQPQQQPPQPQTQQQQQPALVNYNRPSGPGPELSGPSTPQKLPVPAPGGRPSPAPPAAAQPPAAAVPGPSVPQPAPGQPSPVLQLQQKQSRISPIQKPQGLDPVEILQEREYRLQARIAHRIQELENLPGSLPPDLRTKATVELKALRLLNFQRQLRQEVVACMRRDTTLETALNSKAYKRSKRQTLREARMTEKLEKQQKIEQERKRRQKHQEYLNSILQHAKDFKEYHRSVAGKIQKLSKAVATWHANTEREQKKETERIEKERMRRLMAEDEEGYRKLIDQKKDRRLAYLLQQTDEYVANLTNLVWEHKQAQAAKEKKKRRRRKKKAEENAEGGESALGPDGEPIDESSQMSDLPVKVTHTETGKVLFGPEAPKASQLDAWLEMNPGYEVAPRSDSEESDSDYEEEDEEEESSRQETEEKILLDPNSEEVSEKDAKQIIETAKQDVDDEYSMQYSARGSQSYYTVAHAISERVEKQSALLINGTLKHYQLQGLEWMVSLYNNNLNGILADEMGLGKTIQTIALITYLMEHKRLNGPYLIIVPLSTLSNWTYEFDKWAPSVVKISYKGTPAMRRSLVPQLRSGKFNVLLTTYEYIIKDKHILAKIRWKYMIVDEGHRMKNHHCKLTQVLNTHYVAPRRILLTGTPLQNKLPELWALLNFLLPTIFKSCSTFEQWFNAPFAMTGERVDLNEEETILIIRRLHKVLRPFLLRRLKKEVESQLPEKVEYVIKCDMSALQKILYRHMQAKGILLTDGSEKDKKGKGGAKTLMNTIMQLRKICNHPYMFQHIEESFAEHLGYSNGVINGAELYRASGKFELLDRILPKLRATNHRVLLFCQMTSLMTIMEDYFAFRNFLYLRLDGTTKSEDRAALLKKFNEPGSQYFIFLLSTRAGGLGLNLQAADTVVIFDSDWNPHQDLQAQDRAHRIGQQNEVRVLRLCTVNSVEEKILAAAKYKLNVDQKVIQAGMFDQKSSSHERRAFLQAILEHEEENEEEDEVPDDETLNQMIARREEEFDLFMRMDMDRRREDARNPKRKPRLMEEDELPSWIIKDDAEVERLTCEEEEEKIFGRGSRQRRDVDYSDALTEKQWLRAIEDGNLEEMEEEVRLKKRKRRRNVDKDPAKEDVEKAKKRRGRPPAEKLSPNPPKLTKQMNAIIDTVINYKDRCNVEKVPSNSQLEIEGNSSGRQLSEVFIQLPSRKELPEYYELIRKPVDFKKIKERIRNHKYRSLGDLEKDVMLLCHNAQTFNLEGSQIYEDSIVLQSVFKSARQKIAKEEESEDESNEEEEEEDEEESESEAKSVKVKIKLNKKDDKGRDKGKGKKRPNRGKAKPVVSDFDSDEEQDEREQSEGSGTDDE
Chain of SMARCA4 (P51532 whole entry): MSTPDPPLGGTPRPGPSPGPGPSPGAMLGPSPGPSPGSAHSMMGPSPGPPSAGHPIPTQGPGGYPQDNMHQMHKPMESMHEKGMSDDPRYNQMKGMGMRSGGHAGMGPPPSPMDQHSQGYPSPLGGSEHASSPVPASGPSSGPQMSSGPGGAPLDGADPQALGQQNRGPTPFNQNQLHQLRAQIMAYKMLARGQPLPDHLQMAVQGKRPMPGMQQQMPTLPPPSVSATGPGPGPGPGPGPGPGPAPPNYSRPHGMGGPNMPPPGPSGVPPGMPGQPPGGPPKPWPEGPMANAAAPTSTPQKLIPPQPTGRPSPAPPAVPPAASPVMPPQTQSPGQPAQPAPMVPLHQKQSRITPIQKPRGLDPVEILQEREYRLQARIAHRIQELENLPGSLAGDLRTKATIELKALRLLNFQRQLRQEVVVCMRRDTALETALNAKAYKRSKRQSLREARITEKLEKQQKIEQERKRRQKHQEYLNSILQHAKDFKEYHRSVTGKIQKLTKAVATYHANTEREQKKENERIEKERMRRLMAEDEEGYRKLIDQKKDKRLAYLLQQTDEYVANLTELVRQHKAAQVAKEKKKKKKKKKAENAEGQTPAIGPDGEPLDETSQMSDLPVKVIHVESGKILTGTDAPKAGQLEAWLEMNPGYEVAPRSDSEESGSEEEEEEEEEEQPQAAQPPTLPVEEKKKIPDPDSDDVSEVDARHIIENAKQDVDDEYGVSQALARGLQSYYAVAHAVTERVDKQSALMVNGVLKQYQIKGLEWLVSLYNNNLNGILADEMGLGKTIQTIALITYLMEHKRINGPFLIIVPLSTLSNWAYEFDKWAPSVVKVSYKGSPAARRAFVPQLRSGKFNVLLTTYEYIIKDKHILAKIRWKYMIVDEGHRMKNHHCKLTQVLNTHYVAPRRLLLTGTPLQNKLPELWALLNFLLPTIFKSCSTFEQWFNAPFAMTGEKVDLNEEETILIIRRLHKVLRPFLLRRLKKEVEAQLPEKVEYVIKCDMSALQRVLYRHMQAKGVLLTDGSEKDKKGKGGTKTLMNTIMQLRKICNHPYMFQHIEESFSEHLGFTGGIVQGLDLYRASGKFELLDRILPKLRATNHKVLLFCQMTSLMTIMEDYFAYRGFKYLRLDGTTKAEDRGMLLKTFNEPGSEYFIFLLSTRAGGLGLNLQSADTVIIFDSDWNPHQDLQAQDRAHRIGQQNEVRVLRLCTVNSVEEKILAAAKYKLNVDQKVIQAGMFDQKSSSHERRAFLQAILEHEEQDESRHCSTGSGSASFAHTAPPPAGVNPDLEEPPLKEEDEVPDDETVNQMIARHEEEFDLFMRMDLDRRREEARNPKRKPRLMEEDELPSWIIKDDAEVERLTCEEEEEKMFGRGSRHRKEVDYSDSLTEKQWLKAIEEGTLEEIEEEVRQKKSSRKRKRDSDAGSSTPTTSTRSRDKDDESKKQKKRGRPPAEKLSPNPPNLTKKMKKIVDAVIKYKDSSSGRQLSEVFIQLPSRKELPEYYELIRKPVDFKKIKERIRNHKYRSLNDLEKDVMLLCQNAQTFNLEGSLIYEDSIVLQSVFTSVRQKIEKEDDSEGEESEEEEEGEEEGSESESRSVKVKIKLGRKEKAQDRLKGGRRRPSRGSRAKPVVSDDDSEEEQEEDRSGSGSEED

Row | Compound | DC50 [1] | Dmax [1] | DC50 [2] | Dmax [2]
1 | Cc1ncsc1-c1ccc([C@H](C)NC(=O)[C@@H]2C[C@@H](O)CN2C(=O)[C@@H](NC(=O)C2CC(N3CCC(c4ccc5c(c4)C(C)(C)c4nc(=O)c6c(Cl)cccc6n4-5)CC3)C2)C(C)(C)C)cc1 (stereo partly drawn) [Compound B13, (2S,4R)-1-((2S)-2-(3-(4-(4-chloro-7,7-dimethyl-5-oxo-5,7-dihydroindolo[1,2-a]quinazolin-9-yl)piperidin-1-yl)cyclobutane-1-carboxamido)-3,3-dimethylbutanoyl)-4-hydroxy-N-((S)-1-(4-(4-methylthiazol-5-yl)phenyl)ethyl)pyrrolidine-2-carboxamide] | < 100 nM | 70 to 90% | 100 to 500 nM | < 50%
2 | Cc1cc(C(C(=O)N2C[C@H](O)C[C@H]2C(=O)N[C@@H](C)c2ccc(-c3scnc3C#CCN3CCC(c4ccc5c(c4)C(C)(C)c4nc(=O)c6c(Cl)cccc6n4-5)CC3)cc2)C(C)C)on1 (stereo partly drawn) [Compound B144, (2S,4R)—N—((S)-1-(4-(4-(3-(4-(4-chloro-7,7-dimethyl-5-oxo-5,7-dihydroindolo[1,2-a]quinazolin-9-yl)piperidin-1-yl)prop-1-yn-1-yl)thiazol-5-yl)phenyl)ethyl)-4-hydroxy-1-(3-methyl-2-(3-methylisoxazol-5-yl)butanoyl)pyrrolidine-2-carboxamide] | 100 to 500 nM | 50 to 69% | < 100 nM | 50 to 69%
3 | Cc1ncsc1-c1ccc([C@H](CN2CCOCC2)NC(=O)[C@@H]2C[C@@H](O)CN2C(=O)[C@H](C(C)C)n2cc([C@H]3CC[C@H](CN4CCC(c5ccc6c(c5)-n5c(nc(=O)c7c(Br)cccc75)C65CCCCC5)CC4)CC3)nn2)cc1 [Compound B106, (2S,4R)-1-((S)-2-(4-((1r,4S)-4-((4-(4′-bromo-5′-oxo-5′H-spiro[cyclohexane-1,7′-indolo[1,2-a]quinazolin]-10′-yl)piperidin-1-yl)methyl)cyclohexyl)-1H-1,2,3-triazol-1-yl)-3-methylbutanoyl)-4-hydroxy-N-((R)-1-(4-(4-methylthiazol-5-yl)phenyl)-2-morpholinoethyl)pyrrolidine-2-carboxamide] | < 100 nM | > 90% | < 100 nM | > 90%
4 | Cc1ncsc1-c1ccc([C@H](CN2CCOCC2)NC(=O)[C@@H]2C[C@@H](O)CN2C(=O)[C@@H](c2cc(N3CCC(c4ccc5c(c4)C(C)(C)c4nc(=O)c6c(Cl)cccc6n4-5)CC3)no2)C(C)C)cc1 [Compound B110, (2S,4R)-1-(2-(3-(4-(4-chloro-7,7-dimethyl-5-oxo-5,7-dihydroindolo[1,2-a]quinazolin-9-yl)piperidin-1-yl)isoxazol-5-yl)-3-methylbutanoyl)-4-hydroxy-N—((R)-1-(4-(4-methylthiazol-5-yl)phenyl)-2-morpholinoethyl)pyrrolidine-2-carboxamide] | < 100 nM | > 90% | < 100 nM | 70 to 90%
5 | Cc1ncsc1-c1ccc([C@H](C)NC(=O)[C@@H]2C[C@@H](O)CN2C(=O)[C@@H](c2cc(OCCN3CCC(c4ccc5c(c4)-n4c(nc(=O)c6c(Cl)cccc64)C5(C)C)CC3)no2)C(C)C)cc1 [Compound B32, (2S,4R)-1-((R)-2-(3-(2-(4-(4-chloro-7,7-dimethyl-5-oxo-5,7-dihydroindolo[1,2-a]quinazolin-10-yl)piperidin-1-yl)ethoxy)isoxazol-5-yl)-3-methylbutanoyl)-4-hydroxy-N-((S)-1-(4-(4-methylthiazol-5-yl)phenyl)ethyl)pyrrolidine-2-carboxamide] | < 100 nM | > 90% | < 100 nM | < 50%
6 | Cc1ncsc1-c1ccc([C@H](CN2CCOCC2)NC(=O)[C@@H]2C[C@@H](O)CN2C(=O)[C@H](C(C)C)n2cc([C@H]3CC[C@H](CN4CCN(c5ccc6c(c5)-n5c(nc(=O)c7c(Cl)cccc75)C6(C)C)CC4)CC3)nn2)cc1 [Compound B129, (2S,4R)-1-((S)-2-(4-((1r,4S)-4-((4-(4-chloro-7,7-dimethyl-5-oxo-5,7-dihydroindolo[1,2-a]quinazolin-10-yl)piperazin-1-yl)methyl)cyclohexyl)-1H-1,2,3-triazol-1-yl)-3-methylbutanoyl)-4-hydroxy-N-((R)-1-(4-(4-methylthiazol-5-yl)phenyl)-2-morpholinoethyl)pyrrolidine-2-carboxamide] | < 100 nM | > 90% | < 100 nM | 70 to 90%
7 | C[C@H](NC(=O)[C@@H]1C[C@@H](O)CN1C(=O)[C@@H](NC(=O)[C@H]1CC[C@H](C(=O)N2CCC(c3ccc4c(c3)-n3c(nc(=O)c5c(Cl)cccc53)C4(C)C)CC2)CC1)C(C)(C)C)c1ccc(-c2ncnn2C)cc1 [Compound B65, (2S,4R)-1-((S)-2-((1r,4S)-4-(4-(4-chloro-7,7-dimethyl-5-oxo-5,7-dihydroindolo[1,2-a]quinazolin-10-yl)piperidine-1-carbonyl)cyclohexane-1-carboxamido)-3,3-dimethylbutanoyl)-4-hydroxy-N-((S)-1-(4-(1-methyl-1H-1,2,4-triazol-5-yl)phenyl)ethyl)pyrrolidine-2-carboxamide] | 100 to 500 nM | < 50% | > 1000 nM | < 50%
8 | Cc1ncsc1-c1ccc([C@H](C)NC(=O)[C@@H]2C[C@@H](O)CN2C(=O)[C@@H](c2cc(N3CCC(C(=O)N4CCC(c5ccc6c(c5)C(C)(C)c5nc(=O)c7c(Cl)cccc7n5-6)CC4)CC3)no2)C(C)C)cc1 [Compound B90, (2S,4R)-1-(2-(3-(4-(4-(4-chloro-7,7-dimethyl-5-oxo-5,7-dihydroindolo[1,2-a]quinazolin-9-yl)piperidine-1-carbonyl)piperidin-1-yl)isoxazol-5-yl)-3-methylbutanoyl)-4-hydroxy-N—((S)-1-(4-(4-methylthiazol-5-yl)phenyl)ethyl)pyrrolidine-2-carboxamide] | < 100 nM | > 90% | < 100 nM | > 90%
9 | Cc1ncsc1-c1ccc([C@H](CCCCCN2CCC(c3ccc4c(c3)-n3c(nc(=O)c5c(Cl)cccc53)C4(C)C)CC2)NC(=O)[C@@H]2C[C@@H](O)CN2C(=O)[C@@H](NC(=O)C2(F)CC2)C(C)(C)C)cc1 [Compound B21, (2S,4R)-N-((S)-6-(4-(4-chloro-7,7-dimethyl-5-oxo-5,7-dihydroindolo[1,2-a]quinazolin-10-yl)piperidin-1-yl)-1-(4-(4-methylthiazol-5-yl)phenyl)hexyl)-1-((S)-2-(1-fluorocyclopropane-1-carboxamido)-3,3-dimethylbutanoyl)-4-hydroxypyrrolidine-2-carboxamide] | < 100 nM | > 90% | < 100 nM | > 90%
10 | C[C@H](NC(=O)[C@@H]1C[C@@H](O)CN1C(=O)[C@@H](n1cc([C@H]2CC[C@H](CN3CCN(c4ccc5c(c4)-n4c(nc(=O)c6c(Cl)cccc64)C5(C)C)CC3)CC2)nn1)C(C)(C)C)c1ccc(-c2scnc2C#CCN2CCOCC2)cc1 [Compound B135, (2S,4R)-1-((S)-2-(4-((1r,4S)-4-((4-(4-chloro-7,7-dimethyl-5-oxo-5,7-dihydroindolo[1,2-a]quinazolin-10-yl)piperazin-1-yl)methyl)cyclohexyl)-1H-1,2,3-triazol-1-yl)-3,3-dimethylbutanoyl)-4-hydroxy-N-((S)-1-(4-(4-(3-morpholinoprop-1-yn-1-yl)thiazol-5-yl)phenyl)ethyl)pyrrolidine-2-carboxamide] | < 100 nM | > 90% | < 100 nM | 70 to 90%
11 | Cc1nc(C)c(-c2ccc([C@H](C)NC(=O)[C@@H]3C[C@@H](O)CN3C(=O)[C@@H](n3cc([C@H]4CC[C@H](CN5CCN(c6ccc7c(c6)-n6c(nc(=O)c8c(Cl)cccc86)C7(C)C)CC5)CC4)nn3)C(C)(C)C)cc2)s1 [Compound B133, (2S,4R)-1-((S)-2-(4-((1r,4S)-4-((4-(4-chloro-7,7-dimethyl-5-oxo-5,7-dihydroindolo[1,2-a]quinazolin-10-yl)piperazin-1-yl)methyl)cyclohexyl)-1H-1,2,3-triazol-1-yl)-3,3-dimethylbutanoyl)-N-((S)-1-(4-(2,4-dimethylthiazol-5-yl)phenyl)ethyl)-4-hydroxypyrrolidine-2-carboxamide] | < 100 nM | > 90% | < 100 nM | 70 to 90%
12 | Cc1ncsc1-c1ccc([C@H](C)NC(=O)[C@@H]2C[C@@H](O)CN2C(=O)[C@H](C(C)C)n2cc(CCCN3CCC(c4ccc5c(c4)C(C)(C)c4nc(=O)c6c(Cl)cccc6n4-5)CC3)nn2)cc1 [Compound B24, (2S,4R)-1-((S)-2-(4-(3-(4-(4-chloro-7,7-dimethyl-5-oxo-5,7-dihydroindolo[1,2-a]quinazolin-9-yl)piperidin-1-yl)propyl)-1H-1,2,3-triazol-1-yl)-3-methylbutanoyl)-4-hydroxy-N—((S)-1-(4-(4-methylthiazol-5-yl)phenyl)ethyl)pyrrolidine-2-carboxamide] | < 100 nM | > 90% | < 100 nM | > 90%
